Measured values from US9233127B2, “Compositions and methods for CXCR4 signaling and umbilical cord blood stem cell engraftment” (University of Virginia Patent Foundation, priority 2012, dated 2016).
“Also recorded” adds a separate entry of the source.

How the values were obtained:
[1] = tested on: UCB progenitors (human CD45 cells); experiment: Long-term human engraftment of C3a primed UCB in NOD/SCID mice; type: in vivo
Protocol: FIG. 5A-B—Long-Term Engraftment of C3a Primed Progenitors (comprising upper and lower panels).
FIG. 54A-B—NOD.SCID engraftment comparing C3a Primed UCB vs. Control. […] 54A—control; 54B—C3a
These laboratory experiments were performed to evaluate responsiveness of UCB to SDF-1 gradient correlated with an outcome of injections in NOD/SCID mice to evaluate engraftment in vivo. In vivo studies incorporated humanized NOD.SCID/IL2rγ^null (NOG) mice were conducted to assess proportions and kinetics of human HSC homing, engraftment, comparing C3a primed UCB CD34^+ HSC vs. controls. NOD.SCID/IL2rγ^null is used in our studies as these mice lack the cytoplasmic region of the IL-2Rγ and reproducibly develop human T, myeloid, NK, and B-lymphoid cells when transplanted with cord blood CD34^+ cells. This model therefore provides a platform to analyze in vivo competitive repopulation of the full lymphopoietic system. […] More mature progenitors are considered to have exhausted after 8 weeks in this NOD.SCID model and human cells present are presumed to be derived from transplanted primitive progenitor cells. HLA staining was used to determine UCB chimerism and relative contribution of C3a primed UCB CD34^+ HSC to marrow engraftment.

[2] = tested on: CXCR4; experiment: Western blot of CXCR4 in lipid raft membrane fractions of THP-1 cells; type: cell-based, human
Protocol: FIG. 15A-B—Western blot analysis of the colocalization of CXCR4 in fractions of cell membranes enriched in lipid rafts (fractions 3-5) and depleted of lipid rafts (fractions 9-11). Panel A: Hematopoietic THP-1 cells were stimulated by C3a (1 μg/mL) or desArgC3a (1 μg/mL) or not stimulated (control). CXCR4 was detected in these membrane fractions by Western blot along with ganglioside GM1, a marker of lipid rafts. Experiments were performed three times with similar results. Panel B: In control experiments, cells were pretreated for 1 hr with 10 mM MβCD. A representative study is shown.
Furthermore, direct evidence of the effect of priming agents on CXCR4 incorporation into membrane lipid rafts was obtained from Western blot analysis of CXCR4 expression in various fractions of cell membranes isolated according to their lipid raft content (Example 2, FIG. 15A-B). […] The role of C3a in incorporation of CXCR4 into membrane lipid rafts in UCB cells and involvement of other signaling molecules to this phenomenon will be evaluated in Aim 1.

[3] = tested on: murine BM-derived Sca-1+ cells; experiment: Homing of primed murine Sca-1+ cells into BM of lethally irradiated syngeneic mice; type: in vivo; details: Sca-1+ cells preincubated with C3a 30 min, 16 hrs after transplant
Text: FIG. 16A-B—Panel A: C3a primes homing of murine CFU-GM and CFU-S into BM of lethally irradiated mice. Murine BM-derived Sca-1^+ cells (10^5/mouse) were transplanted into lethally irradiated syngeneic mice. At 16 hrs after transplant, cells were recovered from the femurs of transplanted animals and assayed in secondary cultures for the number of clonogenic CFU-GM (left panel) and, after transplant into secondarily irradiated animals, for the number of day-12 CFU-S (right panel). Data are pooled from three independent experiments using 10 mice each/tested cells (n=30). * p<0.0001. No HSPC cells were recovered from the marrow cavities of control animals (irradiated, not transplanted) Panel B: C3a primes homing of human CB and BM CD34^+ cells into the BM of lethally irradiated NOD/SCID mice. At 16 hrs after transplantation of human CD34^+ cells (10^6/animal), mice were sacrificed and CFU-GM colonies were assayed in methylcellulose cultures. Data are pooled from independent experiments preformed on three different CB- and three different BM samples using 2-4 mice/tested cell sample. p<0.0001.
As final proof of our hypothesis and to test whether the primed cells home better to BM, we primed murine BM-derived Sca-1^+ and human BM- and UCB-derived CD34^+ cells with C3a before their transplantation into lethally irradiated mice. […]

[4] = tested on: CXCR4; experiment: FACS analysis of CXCR4 expression on BM or UCB CD34+ cells; type: cell-based, human; parameters: dose or concentration left out as unconfirmed; details: 0, 12, and 24 hrs
Text: In another set of experiments, we attempted to elucidate the molecular mechanisms by which C3a enhances the responsiveness of hematopoietic cells to an SDF-1 gradient. […] However, we observed that actin polymerization of CD34^+ cells to a low dose of SDF-1 was enhanced in the presence of C3a.

Substance: C3a: 77 amino acid residue protein derived from the human complement C3a precursor; SEQ ID NO:1
- human CD45 cells detected by FACS in marrow ([1]; NOD.SCID at 8 weeks after injection, vs control): significantly higher
- long-term human engraftment, flow cytometry for human anti-CD45 ([1]; NOD/SCID mice harvest after 12 weeks, vs unprimed cells): exhibit long-term human engraftment
- incorporation of Rac-1 into membrane lipid rafts [2]: increased the incorporation of Rac-1
- incorporation of CXCR4 into GM1-enriched membrane lipid rafts (fractions 3-5) ([2]; 1 μg/mL): stimulates incorporation of CXCR4
- homing of murine CFU-GM and CFU-S into BM [3]: home more efficiently; also recorded: homed better; also recorded: primes homing
- CXCR4 expression after C3a exposure [4]: not enhanced; also recorded: negative results
